Test system: MV-4-11 cells
Assay: Gene expression microarray analysis (Affymetrix PrimeView) and GSEA
Format: cell-based, human
Parameters: RFU PODN (11730768_x_at) / Fold change /veh PODN (11730768_x_at) / RFU LINC00158 (11744669_a_at) / Fold change /veh LINC00158 (11744669_a_at) / RFU DUSP10 (11751237_a_at) / Fold change /veh DUSP10 (11751237_a_at) / RFU ID3 (11757404_x_at) / Fold change /veh ID3 (11757404_x_at) / RFU PLEKHG5 (11737974_s_at) / Fold change /veh PLEKHG5 (11737974_s_at) / RFU LRRC4B (11730491_at) / Fold change /veh LRRC4B (11730491_at) / RFU GIMAP4 (11747438_a_at) / Fold change /veh GIMAP4 (11747438_a_at) / RFU KRT8 (11758183_x_at) / Fold change /veh KRT8 (11758183_x_at) / RFU CNN1 (11734310_a_at) / Fold change /veh CNN1 (11734310_a_at) / RFU VPS37D (11726825_at) / Fold change /veh VPS37D (11726825_at) / RFU C10orf10 (11716522_x_at) / Fold change /veh C10orf10 (11716522_x_at) / RFU KIR2DL2 /// KIR2DL4 /// KIR2DL5A /// KIR2DL5B /// KIR2DS1 /// KIR2DS2 /// KIR2DS3 /// KIR2DS4 /// KIR3DL3 /// KIR3DL3 /// KIR3DS1 (11738374_at) / Fold change /veh KIR2DL2 /// KIR2DL4 /// KIR2DL5A /// KIR2DL5B /// KIR2DS1 /// KIR2DS2 /// KIR2DS3 /// KIR2DS4 /// KIR3DL3 /// KIR3DL3 /// KIR3DS1 (11738374_at) / RFU C1QL1 (11718748_at) / Fold change /veh C1QL1 (11718748_at) / RFU TMPRSS4 (11747572_a_at) / Fold change /veh TMPRSS4 (11747572_a_at) / RFU HAMP (11756126_x_at) / Fold change /veh HAMP (11756126_x_at) / RFU RNFT2 (11725882_a_at) / Fold change /veh RNFT2 (11725882_a_at) / RFU NR4A2 (11747474_a_at) / Fold change /veh NR4A2 (11747474_a_at) / RFU ABCC12 (11746883_a_at) / Fold change /veh ABCC12 (11746883_a_at) / RFU TMEM136 (11760407_x_at) / Fold change /veh TMEM136 (11760407_x_at) / RFU CLDN22 /// WWC2 (11732394_at) / Fold change /veh CLDN22 /// WWC2 (11732394_at) / RFU HLA-DPB1 (11760878_x_at) / Fold change /veh HLA-DPB1 (11760878_x_at) / RFU SPINT1 (11716480_a_at) / Fold change /veh SPINT1 (11716480_a_at) / RFU GAP43 (11754022_s_at) / Fold change /veh GAP43 (11754022_s_at) / RFU A4GNT (11735810_at) / Fold change /veh A4GNT (11735810_at) / RFU PRB3 (11715151_x_at) / Fold change /veh PRB3 (11715151_x_at) / RFU TUBB4B (11761932_at) / Fold change /veh TUBB4B (11761932_at) / RFU CAPN14 (11732068_a_at) / Fold change /veh CAPN14 (11732068_a_at) / RFU TMCC2 (11721928_a_at) / Fold change /veh TMCC2 (11721928_a_at) / RFU IRGQ (11745062_a_at) / Fold change /veh IRGQ (11745062_a_at) / RFU FAM174B (11720279_a_at) / Fold change /veh FAM174B (11720279_a_at) / RFU TMPRSS4 (11748680_a_at) / Fold change /veh TMPRSS4 (11748680_a_at) / RFU FAM212B (11763350_a_at) / Fold change /veh FAM212B (11763350_a_at) / RFU PLEKHG5 (11743358_a_at) / Fold change /veh PLEKHG5 (11743358_a_at) / RFU ZSCAN30 (11745921_a_at) / Fold change /veh ZSCAN30 (11745921_a_at) / RFU CMKLR1 (11741424_a_at) / Fold change /veh CMKLR1 (11741424_a_at) / RFU LOC101060620 /// MAPK8IP1 (11723275_at) / Fold change /veh LOC101060620 /// MAPK8IP1 (11723275_at) / RFU SPTSSB (11747773_x_at) / Fold change /veh SPTSSB (11747773_x_at) / RFU PRSS12 (11739890_at) / Fold change /veh PRSS12 (11739890_at) / RFU BIN1 (11741810_x_at) / Fold change /veh BIN1 (11741810_x_at) / RFU WNT11 (11732464_a_at) / Fold change /veh WNT11 (11732464_a_at) / RFU C10orf10 (11716521_a_at) / Fold change /veh C10orf10 (11716521_a_at) / RFU C5orf56 (11738089_at) / Fold change /veh C5orf56 (11738089_at) / RFU CYB561 (11721691_x_at) / Fold change /veh CYB561 (11721691_x_at) / RFU ANKRD19P (11752326_a_at) / Fold change /veh ANKRD19P (11752326_a_at) / RFU OR2T12 /// OR2T33 /// OR2T8 (11738714_s_at) / Fold change /veh OR2T12 /// OR2T33 /// OR2T8 (11738714_s_at) / RFU VCAN (11748164_a_at) / Fold change /veh VCAN (11748164_a_at) / RFU JSRP1 (11732532_at) / Fold change /veh JSRP1 (11732532_at) / RFU KRTAP10-11 (11738290_x_at) / Fold change /veh KRTAP10-11 (11738290_x_at) / RFU MYO3A (11730013_a_at) / Fold change /veh MYO3A (11730013_a_at) / RFU EBF3 (11725865_a_at) / Fold change /veh EBF3 (11725865_a_at) / RFU CAMK2N1 (11719241_x_at) / Fold change /veh CAMK2N1 (11719241_x_at) / RFU C5orf56 (11738088_a_at) / Fold change /veh C5orf56 (11738088_a_at) / RFU OLFML3 (11715873_a_at) / Fold change /veh OLFML3 (11715873_a_at) / RFU LOC100653217 /// NTM (11731650_a_at) / Fold change /veh LOC100653217 /// NTM (11731650_a_at) / RFU MAPK11 (11762145_a_at) / Fold change /veh MAPK11 (11762145_a_at) / RFU FIZ1 (11724087_x_at) / Fold change /veh FIZ1 (11724087_x_at) / RFU OASL (11726364_x_at) / Fold change /veh OASL (11726364_x_at) / RFU SOX15 (11748057_x_at) / Fold change /veh SOX15 (11748057_x_at) / RFU CD79A (11719716_a_at) / Fold change /veh CD79A (11719716_a_at) / RFU HIST1H1D (11736915_at) / Fold change /veh HIST1H1D (11736915_at) / RFU CASKIN2 (11723855_a_at) / Fold change /veh CASKIN2 (11723855_a_at) / RFU LOC730098 (11760151_x_at) / Fold change /veh LOC730098 (11760151_x_at) / RFU OR4N2 (11742367_at) / Fold change /veh OR4N2 (11742367_at) / RFU PRRT2 (11749266_a_at) / Fold change /veh PRRT2 (11749266_a_at) / RFU SNX32 (11753110_a_at) / Fold change /veh SNX32 (11753110_a_at) / RFU CDHR5 (11726645_a_at) / Fold change /veh CDHR5 (11726645_a_at) / RFU RCAN1 (11760418_a_at) / Fold change /veh RCAN1 (11760418_a_at) / RFU FAM167A (11723789_a_at) / Fold change /veh FAM167A (11723789_a_at) / RFU FAM26E (11764081_at) / Fold change /veh FAM26E (11764081_at) / RFU ISYNA1 (11749810_s_at) / Fold change /veh ISYNA1 (11749810_s_at) / RFU ACY1 (11761880_at) / Fold change /veh ACY1 (11761880_at) / RFU 11764098_at / Fold change /veh 11764098_at / RFU SAMD14 (11745864_x_at) / Fold change /veh SAMD14 (11745864_x_at) / RFU NPB (11741838_a_at) / Fold change /veh NPB (11741838_a_at) / RFU TMPRSS6 (11731388_a_at) / Fold change /veh TMPRSS6 (11731388_a_at) / RFU KRTAP10-2 (11738614_at) / Fold change /veh KRTAP10-2 (11738614_at) / RFU ARHGAP8 /// PRR5-ARHGAP8 (11727945_x_at) / Fold change /veh ARHGAP8 /// PRR5-ARHGAP8 (11727945_x_at) / RFU KRTAP5-7 /// NADSYN1 (11734609_at) / Fold change /veh KRTAP5-7 /// NADSYN1 (11734609_at) / RFU RASL12 (11751679_a_at) / Fold change /veh RASL12 (11751679_a_at) / RFU CDKN2B (11736163_a_at) / Fold change /veh CDKN2B (11736163_a_at) / RFU PRF1 (11729649_at) / Fold change /veh PRF1 (11729649_at) / RFU, ZNF638 /// ZNF638-IT1 / Fold change vs veh, ZNF638 /// ZNF638-IT1 / RFU, PANK3 / Fold change vs veh, PANK3 / RFU, SH3YL1 / Fold change vs veh, SH3YL1 / RFU, ZEB2 / Fold change vs veh, ZEB2 / RFU, NRIP1 / Fold change vs veh, NRIP1 / RFU, PTTG1IP / Fold change vs veh, PTTG1IP / RFU, CAPN2 / Fold change vs veh, CAPN2 / RFU, MED14 / Fold change vs veh, MED14 / RFU, SNORA58 / Fold change vs veh, SNORA58 / RFU, C1orf63 / Fold change vs veh, C1orf63 / RFU, LRRFIP1 / Fold change vs veh, LRRFIP1 / RFU, NDUFAF7 / Fold change vs veh, NDUFAF7 / RFU, SLC12A2 / Fold change vs veh, SLC12A2 / RFU, IBTK / Fold change vs veh, IBTK / RFU, ESF1 / Fold change vs veh, ESF1 / Fold change vs veh, TMEM50B / RFU, TAOK1 / Fold change vs veh, TAOK1 / RFU, ACBD3 / Fold change vs veh, ACBD3 / RFU, TMA16 / Fold change vs veh, TMA16 / RFU, RWDD3 / Fold change vs veh, RWDD3 / RFU, BCAT1 / Fold change vs veh, BCAT1 / RFU, EDEM3 / Fold change vs veh, EDEM3 / RFU, TMEM33 / Fold change vs veh, TMEM33 / RFU, WDR75 / Fold change vs veh, WDR75 / RFU, AHCTF1 / Fold change vs veh, AHCTF1 / RFU, TFRC / Fold change vs veh, TFRC / RFU, ZDHHC17 / Fold change vs veh, ZDHHC17 / RFU, NOM1 / Fold change vs veh, NOM1 / RFU, ARL8B / Fold change vs veh, ARL8B / RFU, ZBTB11 / Fold change vs veh, ZBTB11 / RFU, TAMM41 / Fold change vs veh, TAMM41 / RFU, KIAA1704 /// LOC100996395 / Fold change vs veh, KIAA1704 /// LOC100996395 / RFU, ING1 / Fold change vs veh, ING1 / RFU, TRMT61B / Fold change vs veh, TRMT61B / RFU, FUBP3 / Fold change vs veh, FUBP3 / RFU, TP53 / Fold change vs veh, TP53 / RFU, TNKS2 / Fold change vs veh, TNKS2 / RFU, ZFP14 / Fold change vs veh, ZFP14 / RFU, ACTR2 / Fold change vs veh, ACTR2 / RFU, PPP3R1 / Fold change vs veh, PPP3R1 / RFU, PIK3R1 / Fold change vs veh, PIK3R1 / RFU, HNRNPA1 / Fold change vs veh, HNRNPA1 / RFU, RNF170 / Fold change vs veh, RNF170 / RFU, ZNF28 / Fold change vs veh, ZNF28 / RFU, RNGTT / Fold change vs veh, RNGTT / RFU, OGT / Fold change vs veh, OGT / RFU, BRD1 / Fold change vs veh, BRD1 / RFU, MARS / Fold change vs veh, MARS / RFU, ZNF655 / Fold change vs veh, ZNF655 / RFU, FAHD1 / Fold change vs veh, FAHD1 / RFU, BDP1 / Fold change vs veh, BDP1 / RFU, LRRCC1 / Fold change vs veh, LRRCC1 / RFU, ARID1A / Fold change vs veh, ARID1A / RFU, ZNF146 / Fold change vs veh, ZNF146 / RFU, ZNF330 / Fold change vs veh, ZNF330 / RFU, GPN3 / Fold change vs veh, GPN3 / RFU, C9orf123 / Fold change vs veh, C9orf123 / RFU, N4BP2L2 / Fold change vs veh, N4BP2L2 / RFU, ARFIP1 / Fold change vs veh, ARFIP1 / RFU, FAM179B / Fold change vs veh, FAM179B / RFU, BCL10 / Fold change vs veh, BCL10 / RFU, UHRF1BP1L / Fold change vs veh, UHRF1BP1L / RFU, BET1 / Fold change vs veh, BET1 / RFU, CNOT2 / Fold change vs veh, CNOT2 / RFU, ZNF268 / Fold change vs veh, ZNF268 / Fold change vs veh, ZNF507 / RFU, DGCR2 / Fold change vs veh, DGCR2 / RFU, WDSUB1 / Fold change vs veh, WDSUB1 / Fold change vs veh, HSP90B1 /// MIR3652 / RFU, ADSS / Fold change vs veh, ADSS / RFU, GK / Fold change vs veh, GK / RFU, ZNF148 / Fold change vs veh, ZNF148 / RFU, TAF9 / Fold change vs veh, TAF9 / RFU, SLC1A5 / Fold change vs veh, SLC1A5 / RFU, SLMO2 / Fold change vs veh, SLMO2 / RFU, ABCC4 / Fold change vs veh, ABCC4 / RFU, LOC101060439 /// RAP1B / Fold change vs veh, LOC101060439 /// RAP1B / RFU, RFX7 / Fold change vs veh, RFX7 / RFU, GTPBP10 / Fold change vs veh, GTPBP10 / RFU, CNEP1R1 / Fold change vs veh, CNEP1R1 / RFU, BIVM-ERCC5 /// ERCC5 / Fold change vs veh, BIVM-ERCC5 /// ERCC5 / RFU, ILF3 / Fold change vs veh, ILF3 / RFU 11762660_at / Fold change /veh 11762660_at / RFU VCAN (11757783_s_at) / Fold change /veh VCAN (11757783_s_at) / RFU DDX43 (11728927_at) / Fold change /veh DDX43 (11728927_at) / RFU KRT8 (11758188_x_at) / Fold change /veh KRT8 (11758188_x_at) / RFU NKD1 (11759106_at) / Fold change /veh NKD1 (11759106_at) / RFU SRD5A1 (11742802_a_at) / Fold change /veh SRD5A1 (11742802_a_at) / RFU TPSAB1 /// TPSB2 (11721975_s_at) / Fold change /veh TPSAB1 /// TPSB2 (11721975_s_at) / RFU GSTM3 (11746129_a_at) / Fold change /veh GSTM3 (11746129_a_at) / RFU IL23R (11737362_x_at) / Fold change /veh IL23R (11737362_x_at) / RFU TMEM51 (11727254_a_at) / Fold change /veh TMEM51 (11727254_a_at) / RFU PIWIL2 (11732686_x_at) / Fold change /veh PIWIL2 (11732686_x_at) / RFU ORM1 (11744905_x_at) / Fold change /veh ORM1 (11744905_x_at) / RFU CCDC152 (11743942_at) / Fold change /veh CCDC152 (11743942_at) / RFU ECM1 (11717891_a_at) / Fold change /veh ECM1 (11717891_a_at) / RFU IL23R (11748794_a_at) / Fold change /veh IL23R (11748794_a_at) / RFU TNFAIP8L3 (11732012_x_at) / Fold change /veh TNFAIP8L3 (11732012_x_at) / RFU MBOAT4 (11741988_at) / Fold change /veh MBOAT4 (11741988_at) / RFU 11764193_at / Fold change /veh 11764193_at / RFU TMEM53 (11763286_at) / Fold change /veh TMEM53 (11763286_at) / RFU MAGEB2 (11727129_at) / Fold change /veh MAGEB2 (11727129_at) / RFU TMEM200A (11744735_a_at) / Fold change /veh TMEM200A (11744735_a_at) / RFU CCDC152 (11751479_a_at) / Fold change /veh CCDC152 (11751479_a_at) / RFU FAM211A (11726209_a_at) / Fold change /veh FAM211A (11726209_a_at) / RFU RGS16 (11746705_a_at) / Fold change /veh RGS16 (11746705_a_at) / RFU VCAN (11755009_s_at) / Fold change /veh VCAN (11755009_s_at) / RFU RHOB (11743442_s_at) / Fold change /veh RHOB (11743442_s_at) / RFU RGS16 (11720943_a_at) / Fold change /veh RGS16 (11720943_a_at) / RFU RGS16 (11720944_at) / Fold change /veh RGS16 (11720944_at) / RFU, VPS4B / Fold change vs veh, VPS4B / RFU, CREB1 / Fold change vs veh, CREB1 / RFU, DNAJC13 / Fold change vs veh, DNAJC13 / RFU, GNAQ / Fold change vs veh, GNAQ / RFU, CDK5R1 / Fold change vs veh, CDK5R1 / RFU, ZRANB3 / Fold change vs veh, ZRANB3 / RFU, CUL4A / Fold change vs veh, CUL4A / RFU, CCNY / Fold change vs veh, CCNY / RFU, UFL1 / Fold change vs veh, UFL1 / RFU, COG3 / Fold change vs veh, COG3 / RFU, DIAPH2 / Fold change vs veh, DIAPH2 / RFU, SKA2 / Fold change vs veh, SKA2 / RFU, AFF3 / Fold change vs veh, AFF3 / RFU, LMF1 / Fold change vs veh, LMF1 / RFU, IPO11 / Fold change vs veh, IPO11 / RFU, DFFB / Fold change vs veh, DFFB / RFU, FOXP1 / Fold change vs veh, FOXP1 / RFU, CARD8 / Fold change vs veh, CARD8 / RFU, STRN3 / Fold change vs veh, STRN3 / RFU, ADK / Fold change vs veh, ADK / RFU, RASSF2 / Fold change vs veh, RASSF2 / RFU, WIPF1 / Fold change vs veh, WIPF1 / RFU, LARP1B / Fold change vs veh, LARP1B / RFU, RASA1 / Fold change vs veh, RASA1 / RFU, RB1 / Fold change vs veh, RB1 / RFU, PPFIA1 / Fold change vs veh, PPFIA1 / RFU, MAT2A / Fold change vs veh, MAT2A / RFU, CCT5 / Fold change vs veh, CCT5 / RFU, WDR92 / Fold change vs veh, WDR92 / RFU, CUX1 / Fold change vs veh, CUX1 / RFU, TTC7A / Fold change vs veh, TTC7A / RFU, TMEM135 / Fold change vs veh, TMEM135 / RFU, DEPTOR / Fold change vs veh, DEPTOR / RFU, CPM / Fold change vs veh, CPM / RFU, DNAJB6 / Fold change vs veh, DNAJB6 / RFU, CACNA2D3 / Fold change vs veh, CACNA2D3 / RFU, DTX4 / Fold change vs veh, DTX4 / RFU, TFCP2 / Fold change vs veh, TFCP2 / RFU, GMCL1 /// GMCL1P1 / Fold change vs veh, GMCL1 /// GMCL1P1 / RFU, AEBP2 / Fold change vs veh, AEBP2 / RFU, SNHG1 /// SNORD22 /// SNORD25 /// SNORD26 /// SNORD27 /// SNORD28 /// SNORD29 /// SNORD31 / Fold change vs veh, SNHG1 /// SNORD22 /// SNORD25 /// SNORD26 /// SNORD27 /// SNORD28 /// SNORD29 /// SNORD31 / Fold change (Aza/veh), C12orf56 (ProbeSet 11735607_a_at) / Fold change (ACY-1035/veh), C12orf56 (ProbeSet 11735607_a_at) / Fold change (Aza/veh), FGFR1OP (ProbeSet 11751329_s_at) / Fold change (ACY-1035/veh), FGFR1OP (ProbeSet 11751329_s_at) / Fold change (Aza/veh), VPS36 (ProbeSet 11739960_a_at) / Fold change (ACY-1035/veh), VPS36 (ProbeSet 11739960_a_at) / RFU SYPL1 (11715823_x_at) / Fold change /veh SYPL1 (11715823_x_at) / RFU IGFBP7 (11715501_s_at) / Fold change /veh IGFBP7 (11715501_s_at) / RFU REEP3 (11722064_at) / Fold change /veh REEP3 (11722064_at) / RFU IGLL1 (11728026_x_at) / Fold change /veh IGLL1 (11728026_x_at): dose or concentration left out as unconfirmed
Conditions: ProbeSet 11716931_at; LIST B

## Nc1ncn([C@@H]2O[C@H](CO)[C@@H](O)[C@H]2O)c(=O)n1 [azacitidine]
  Fold change vs veh, DGCR2: 0.93
